Test results taken from patent US20120021992A1, “METHODS FOR IMPROVING NEUROLOGICAL OUTCOME AFTER NEURAL INJURY AND NEURODEGENERATIVE DISEASE” (Henry Ford Health System, priority 2009, published 2012).

Columns and labels:
[1] = test system: stroke (middle cerebral artery occlusion (MCAo)) rats; assay: Embolic middle cerebral artery occlusion (MCAo) stroke model; assay type: in vivo, rat
Procedure: (§1) Effectiveness of treatment with thymosin β4 was tested in stroke (middle cerebral artery occlusion (MCAo)) rats and in experimental autoimmune encephalomyelitis (EAE) mice (a well-established in vivo model for multiple sclerosis). Both the stroke rats and the EAE mice were treated with 6 mg/kg thymosin β4 intraperitoneally (IP) in a volume of 0.3 mL twenty-four hours after stroke or after the day of immunization in the EAE model and then every three days (6 mg/kg IP) for four additional doses. An equal volume of saline was administered (IP) to a group of both stroke rats and EAE mice as a control. Bromodeoxyuridine (BrdU; 100 mg/kg) was administered (IP) daily for seven days, initiated 24 hours after MCAo to label proliferating cells. Behavioral tests (adhesive removable test and NSS (Neurological Severity Score)) were performed immediately before treatment and at days 1, 7, 14, 21, 28, 35, 42, 49, and 56 days after MCAo and up to 30 days in the EAE mouse model. All rats were sacrificed 56 days after MCAo; EAE mice were sacrificed at 30 days.

[2] = test system: experimental autoimmune encephalomyelitis (EAE) mice; assay: Experimental autoimmune encephalomyelitis (EAE) model of multiple sclerosis; assay type: in vivo, mouse; conditions: 6 mg/kg IP, up to 30 days, versus control, p<0.01 (FIG. 9)
Procedure: as §1

[3] = embolic stroke rats, 6 mg/kg IP, versus saline control

thymosin β4
number of myelinated axons ([1]; after MCAo, Bielschowsky and Luxol Fast Blue staining, p<0.05 (FIG. 4)): increased
cellular proliferation (BrdU expression, number of BrdU immunoreactive cells) ([1]; after MCAo, p<0.05 (FIG. 8)): also increased
number of oligodendrocyte progenitors and matured oligodendrocytes ([1]; after MCAo, p<0.05 (FIGS. 5-7)): increased
functional outcome by behavioral tests (adhesive removal test, NSS) ([1]; beginning at 21 days after stroke onset, 6 mg/kg IP, p<0.05 (FIG. 1-2)): Significant functional improvement
relative increase in BrdU expression in the striatum or myelinated region of the rat brain ([1]; embolic stroke rats, 6 mg/kg IP from 24 h after MCAo, then every three days for four additional doses, versus saline control): 42%
increase in CNP, a marker of mature oligodendrocytes [1, 3]: 11%
increase in NG-2, a marker of immature oligodendrocytes [1, 3]: 47%
functional neurological score [2]: robust improvement
